Assay results published in patent US8470983B2, “L-sugar colon cleansing agent and uses thereof” (Aptalis Pharma Canada Inc., priority 2009, dated 2013).

Key:
[1] = Dissolution of L-glucose monohydrate versus anhydrous L-glucose in water with consumer-like stirring; type: physicochemical; settings: for Time of stirring until sample fully dissolved: 53 g L-glucose monohydrate in 240 mL doubly distilled water; for Observation of undissolved solid / clumping / Appearance of final solution: 240 mL water
Description: The following describes methods for determining the increased dissolution rate of L-glucose monohydrate comprising compositions.
Each sample comprises approximately an equivalent amount of L-glucose on a weight basis. Carefully, to avoid agitation and mixing, doubly distilled water (240 mL) is added to each beaker. In one example, the solution is stirred immediately after addition of water. In a second example, the solutions are allowed to stand for 5 minutes before agitation. The stiffing was conducted in a manner duplicating the way a consumer is expected to stir a sample prior to use. The following Table summaries these experiments which were conducted in duplicate.

[2] = Comparative Example 2: randomized, single-blind study of L-glucose as bowel preparation before colonoscopy (GPA scale); type: in vivo, human
Description: (§1) Global Preparation Assessment
(§2) Excellent=clean colon or small volume of clear liquid
(§3) Good=moderate to large volume of clear to semiclear liquid
(§4) Fair=some semisolid stool suctioned or washed away
(§5) Poor=semisolid or solid stool unable to be suctioned or washed away
A randomized, single-blind study designed to determine the clinical effectiveness of L-glucose as a bowel preparation before colonoscopy was performed. Three dose regimens were evaluated: 24 g in the evening only, 30 g in the evening only, and 24 g in the evening followed by 12 g in the morning (36 g total). Here, Applicant's GPA scale described herein was used to evaluate the preparations. […] Clinical efficacy (defined as a combination of “excellent” and “good” assessments) for the split-dose schedule was 19/27 (70%), as compared to 7/31 (23%) in the single-dose schedule (p<0.001).
As noted above in the description of Applicant's GPA scale, the criteria for determining whether a preparation was deemed “excellent” or “good” was respectively defined as “clean colon or small volume of clear liquid” or “moderate to large volume of clear to semi-clear liquid.” These criteria are more stringent than the rating system used by Raymer et al. discussed supra since Raymer's “excellent” and “good” ratings were respectively defined as “no more than small bits of adherent fecal fluid” and “small amounts of feces or fluid not interfering with the examination.” Thus, Raymer's “excellent” rating would likely not qualify as even a “good” rating in Applicant's GPA scale.

[3] = 24-g single dose; Raymer scale; cited from earlier work
[4] = Clinical studies of L-glucose absorption, elimination and tolerability; type: in vivo, human
[5] = Example 3: open-label, 2-site dose-escalating split-dose study of L-glucose before colonoscopy (GPA and RSS); type: in vivo, human
Text: Applicants have relied upon a combination of a categorical, 4-point scale and a numerical, segmental scoring system to assess bowel cleansing quality (Balaban et al. “Low volume bowel preparation for colonoscopy: randomized, endoscopist-blinded trial of liquid sodium phosphate versus tablet sodium phosphate,” Am J Gastroenterol 98:827-32, 2003). The basic 4-point scale, known as the Global Preparation Assessment (GPA), is essentially the same as the original scale used in the first randomized controlled trial of PHOSPHO-SODA™ as a bowel cleansing agent published in 1990 by Vanner, et al. (“A randomized prospective trial comparing oral sodium phosphate with standard polyethylene glycol-based lavage solution (Golytely) in the preparation of patients for colonoscopy,” Am J Gastroenterol 85:422-7, 1990). The numerical scoring system, known as the Residual Stool Score (RSS), is a continuously variable, averaged segmental scoring instrument that assesses both the amount and consistency of residual stool before suctioning (a measure of the cathartic activity of the bowel cleansing regimen) as well as the percent of the bowel wall seen after washing and cleansing (a measure of the ultimate endpoint for bowel preparation success). The two scales are shown below.
as §1, §2, §3, §4, §5
This open-label, 2-site study employed a dose-escalating design using 3 split doses of L-glucose (24 g/24 g, 36 g/36 g, and 48 g/48 g). The doses were administered the night before and the morning of a scheduled colonoscopy. The study was conducted in Phase I facilities to control for administration of L-glucose and adherence to the dietary and hydration regimen.
Three dose cohorts of 24 subjects were evenly divided between males and females for each cohort. Subjects who were scheduled to undergo an elective colonoscopy, who met the study entrance criteria, and who gave their consent to participate in the study were enrolled. […] Each subject observed a strict diet and hydration regimen as part of the study medication administration.
The site pharmacist prepared the L-glucose preparation based on the study medication preparation manual provided. Each subject, regardless of dose cohort, received the dose in 8 ounces of water, which was to be consumed within a 10-minute period. Dose cohorts proceeded in a dose-escalating fashion starting with the lowest dose (24 g/24 g) and escalated according to a dose escalation decision tree.
The physician performing the colonoscopy utilized Applicant's GPA scale to evaluate the quality of bowel preparation as before suctioning and washing.
The Residual Stool Score (RSS) described above was also used to assess bowel cleansing in each of the 5 segments of the bowel (rectum, descending colon, transverse colon, ascending colon, and cecum). As noted, assessments included the amount of stool present, the consistency of the stool, and the estimated percentage of the bowel wall visualized in each segment.
For reasons of inadequate bowel preparation, sections of the bowel that were not directly examined during colonoscopy were rated as “poor” on all three measures listed previously.
A total of 24 subjects were enrolled into each of the three dose cohorts. All 72 subjects were included in the intent-to-treat (ITT) and safety populations.

[6] = design: species or system mice, rats, dogs, rabbits, and monkeys; settings: in vivo
Description: (§6) In preclinical studies, there was no metabolism of L-glucose in any mammalian species studied. […] The maximum tolerated dose in rats was determined to be 10% dietary level of L-glucose.

[7] = 90-day dietary study of L-glucose; type: in vivo
Description: as §6

[8] = Comparative Example 1: multicenter, double-blind, dose-range-finding study of L-glucose as colon-cleansing agent before colonoscopy; type: in vivo, human; settings: single doses 12 g, 16 g, 20 g, 24 g
Description: A multicenter, double-blind, dose-range-finding study to evaluate the effectiveness and safety of L-glucose as a colon-cleansing agent before colonoscopy was conducted. Doses used in this study were 12 g, 16 g, 20 g, and 24 g. The assessment of the preparations was based on the scale used in Hsu et al., “Meta-analysis and cost comparison of polyethylene glycol lavage versus sodium phosphate for colonoscopy preparation,” Gastrointestinal Endoscopy 48(3):276-282, 1998, wherein small bits of fecal material in the colon were allowed in an “Excellent” score.

[9] = 5 min. delay before stirring, listed as L- glucose monohydrate^2, monohydrate
[10] = no delay before stirring, listed as L- glucose monohydrate^2, monohydrate
[11] = 24 g, 30 g, 24 g + 12 g regimens
[12] = Total of all three dose cohorts, ITT, N = 72

Structure (SMILES): O.O=C[C@@H](O)[C@H](O)[C@@H](O)[C@@H](O)CO [L-glucose monohydrate]
- Time of stirring until sample fully dissolved ([1]; 5 min. delay before stirring, listed as L- glucose monohydrate^1, monohydrate): Sample fully dissolved after 2.5 min. of stirring.
- Time of stirring until sample fully dissolved [1, 9]: Fully dissolved after 1 min. of stirring. Final
- Time of stirring until sample fully dissolved ([1]; no delay before stirring, listed as L- glucose monohydrate^1, monohydrate): Sample fully dissolved after 2.5 min. of stirring.
- Time of stirring until sample fully dissolved [1, 10]: Fully dissolved after 2 min. of stirring. Final
- Observation of undissolved solid / clumping ([1]; 5 min. delay before stirring): Several clusters of solid at 1 min. Final solution
- Appearance of final solution [1, 9]: solution was clear, colorless and homogeneous
- Observation of undissolved solid / clumping ([1]; no delay before stirring): Several clusters of solid at 1 min. Final solution
- Appearance of final solution [1, 10]: solution was clear, colorless and homogeneous

Structure (SMILES): O=C[C@@H](O)[C@H](O)[C@@H](O)[C@@H](O)CO [L-glucose]
- Outcome of evening-only dose arms ([2]; 24 g and 30 g evening-only doses): suspended for lack of effectiveness
- Changes in laboratory test results [2, 11]: no clinically significant changes
- Commonly reported adverse events [2, 11]: generally absent or mild
- Overall tolerance to the bowel preparation [2, 11]: good or very good
- Clinical efficacy (combination of excellent and good GPA assessments) ([2]; single-dose schedule (24 g or 30 g evening only), 7/31 subjects): 23%
- Clinical efficacy (combination of excellent and good GPA assessments) ([2]; split-dose schedule: 24 g evening followed by 12 g morning, 19/27 subjects): 70%
- Subjects with colonoscopy preparation grade of excellent or good [3]: 80%
- Metabolism by colonic bacteria ([4]; breath hydrogen in humans, comparable with in vitro studies): colonic bacteria do not metabolize L-glucose
- Absorption from the intestine ([4]; human, in vivo): moderately absorbed
- Glucose or insulin response after administration ([4]; human, in vivo): No significant glucose or insulin response
- Lower gastrointestinal symptoms (cramping, gas/flatus) ([4]; human, in vivo): occurred in a majority of subjects, but symptoms were mild
- Major routes of elimination ([4]; human, in vivo): fecal and urinary excretion
- Mild upper gastrointestinal symptoms (vomiting, nausea, belching/rifting, bloating) ([4]; human, in vivo): occurred in a minority of subjects
- Global Preparation Assessment, Max ([5]; 24 g/24 g cohort, ITT, n = 24): 4.00
- Global Preparation Assessment, Mean (SD) ([5]; 24 g/24 g cohort, ITT, n = 24): 3.29 (0.81)
- Global Preparation Assessment, Median ([5]; 24 g/24 g cohort, ITT, n = 24): 3.50
- Global Preparation Assessment, Min ([5]; 24 g/24 g cohort, ITT, n = 24): 2.00
- Subjects with GPA Fair, number (percentage) ([5]; 24 g/24 g cohort, ITT, n = 24): 5 (20.8)
- Subjects with GPA Good, number (percentage) ([5]; 24 g/24 g cohort, ITT, n = 24): 7 (29.2)
- Subjects with GPA Poor, number (percentage) ([5]; 24 g/24 g cohort, ITT, n = 24): 0 (0.0)
- Global Preparation Assessment, Max ([5]; 36 g/36 g cohort, ITT, n = 24): 4.00
- Global Preparation Assessment, Median ([5]; 36 g/36 g cohort, ITT, n = 24): 4.00
- Global Preparation Assessment, Min ([5]; 36 g/36 g cohort, ITT, n = 24): 1.00
- Subjects with GPA Fair, number (percentage) ([5]; 36 g/36 g cohort, ITT, n = 24): 2 (8.3)
- Subjects with GPA Good, number (percentage) ([5]; 36 g/36 g cohort, ITT, n = 24): 7 (29.2)
- Global Preparation Assessment, Max ([5]; 48 g/48 g cohort, ITT, n = 24): 4.00
- Global Preparation Assessment, Median ([5]; 48 g/48 g cohort, ITT, n = 24): 4.00
- Global Preparation Assessment, Min ([5]; 48 g/48 g cohort, ITT, n = 24): 2.00
- Subjects with GPA Fair, number (percentage) ([5]; 48 g/48 g cohort, ITT, n = 24): 1 (4.2)
- Subjects with GPA Good, number (percentage) ([5]; 48 g/48 g cohort, ITT, n = 24): 1 (4.2)
- Subjects with GPA Poor, number (percentage) ([5]; 48 g/48 g cohort, ITT, n = 24): 0 (0.0)
- Efficacy compared among the three split doses ([5]; 48 g/48 g dose): greatest efficacy
- Time to the first watery bowel movement, compared among doses ([5]; 48 g/48 g dose): shortest time to the first watery bowel movement
- GPA, mean (SD) ([5]; Site 01, all dose cohorts): 3.68 (0.75)
- Subjects who had a complete colonoscopy, number (percentage) ([5]; Site 01, all dose cohorts): 30 (96.8%)
- Subjects with GPA rated poor, number (percentage) ([5]; Site 01, all dose cohorts): 1 (3.2%)
- Subjects with GPA rated excellent ([5]; Site 01, all dose cohorts, 25 subjects): 80.7%
- GPA, mean (SD) ([5]; Site 02, all dose cohorts): 3.41 (0.74)
- Subjects who had a complete colonoscopy, number (percentage) ([5]; Site 02, all dose cohorts): 39 (95.1%)
- Subjects with GPA rated excellent ([5]; Site 02, all dose cohorts, 23 subjects): 56.1%
- Global Preparation Assessment, Max [5, 12]: 4.00
- Global Preparation Assessment, Mean (SD) [5, 12]: 3.53 (0.75)^
- Global Preparation Assessment, Median [5, 12]: 4.00
- Global Preparation Assessment, Min [5, 12]: 1.00
- Subjects with GPA Excellent, number (percentage) [5, 12]: 48 (66.7)
- Subjects with GPA Fair, number (percentage) [5, 12]: 8 (11.1)
- Subjects with GPA Good, number (percentage) [5, 12]: 15 (20.8)
- Subjects with GPA Poor, number (percentage) [5, 12]: 1 (1.4)
- Subjects who had a complete colonoscopy (to the level of the cecum), number (percentage) ([5]; in each dose cohort (24 g/24 g, 36 g/36 g, 48 g/48 g)): 23 (95.8%)
- Effect of food restriction on metabolism [6]: no significant effect
- Major route of elimination [6]: urinary excretion
- Metabolism of L-glucose [6]: no metabolism
- Toxicity from continuous administration ([7]; rat, in vivo): no overt evidence of toxicity
- Maximum tolerated dose ([7]; rats): 10 % dietary level
- Acceptability as a colonic cleanser [8]: not acceptable
